Assay results as given in ChEMBL document CHEMBL1152505, “Enaminones 10. Molecular modeling aspects of the 5-methylcyclohexenone derivatives” (Bioorg Med Chem, 2009).

Tests used:
[1] = species: Mus musculus; experiment: Anticonvulsant activity in mouse assessed as inhibition of maximal electroshock-induced seizures; assay type: functional
[2] = Toxicity in mouse; assay type: organism-based; details: in vivo
[3] = species: Mus musculus; experiment: Protective index, ratio of TD50 for mouse to ED50 for maximal electroshock-induced mouse seizure model; assay type: functional
[4] = species: Mus musculus; experiment: Anticonvulsant activity against maximal electroshock-induced seizures in mouse assessed as time to peak effect; assay type: functional
[5] = species: Rattus norvegicus; experiment: Anticonvulsant activity in rat assessed as inhibition of maximal electroshock-induced seizures; assay type: functional
[6] = Toxicity in rat; assay type: organism-based; details: in vivo
[7] = species: Rattus norvegicus; experiment: Protective index, ratio of TD50 for rat to ED50 for maximal electroshock-induced rat seizure model; assay type: functional
[8] = species: Rattus norvegicus; experiment: Anticonvulsant activity against maximal electroshock-induced seizures in rat assessed as time to peak effect; assay type: functional

| SMILES | ED50 [1] | TD50 [2] | PI [3] | Time [4] | ED50 [5] | TD50 [6] | PI [7] | Time [8] |
| --- | --- | --- | --- | --- | --- | --- | --- | --- |
| CC1CC(=O)C=C(Nc2ccc(Cl)cc2)C1 (stereo unspecified) | 16.7 mg/kg | 111 mg/kg | 6.6 | 0.25 h | 14.7 mg/kg | > 186 mg/kg | >83.3 | 1 h |
| CC1CC(=O)C=C(Nc2ccc(OC(F)(F)F)cc2)C1 (stereo unspecified) | – | – | – | – | 6.5 mg/kg | > 400 mg/kg | >62 | 0.5 h |
| COc1cccc(NC2=CC(=O)CC(C)C2)c1 (stereo unspecified) | – | – | – | – | 39.4 mg/kg | > 500 mg/kg | >12.7 | 0.5 h |
| CC1CC(=O)C=C(Nc2ccc(C(F)(F)F)cc2)C1 (stereo unspecified) | – | – | – | – | 10.3 mg/kg | > 500 mg/kg | >48.4 | 1 h |
| CC1CC(=O)C=C(Nc2ccc(I)cc2)C1 (stereo unspecified) | 77 mg/kg | 344 mg/kg | 4.5 | 0.25 h | 17.6 mg/kg | > 500 mg/kg | >28.3 | 2 h |
| CC1CC(=O)C=C(Nc2ccc(Br)cc2)C1 (stereo unspecified) | – | – | – | – | 7.6 mg/kg | > 500 mg/kg | >65.8 | 0.5 h |
| CC1CC(=O)C=C(Nc2ccc([N+](=O)[O-])cc2)C1 (stereo unspecified) | – | – | – | – | 18.4 mg/kg | > 500 mg/kg | >27.4 | 4 h |
